The results in this text go back to paper PMC7366380, “Discovery of a Potent and Selective Covalent Inhibitor and Activity-Based Probe for the Deubiquitylating Enzyme UCHL1, with Antifibrotic Activity” (Journal of the American Chemical Society, 2020).

Values joined by “and” are separate entries in the source; they are usually repeats but may differ in a detail not shown here. Equal entries are not always repeated. A value given as a limit tells only on which side of the number the result lay.

Experiment [1] addresses DUBs and other proteins in HEK293 cells (Homo sapiens, UniProt Q93009). Description: In-cell proteome-wide competitive ABPP, HEK293: other DUBs and proteins. The settings on record: replicates A-C; for Log2 reporter intensity values: USP7: DMSO substract (FC); for Log2 reporter intensity values: USP7, DMSO subtracted.
Experiment [2] has as its target DUBs and other proteins in HEK293 cells (Homo sapiens, UniProt O15372). Described as above. The settings on record: for Log2 reporter intensity values, EIF3H: TMT replicates; for Log2 reporter intensity values: EIF3H: DMSO substract (FC); for Log2 reporter intensity values: EIF3H / Log2 reporter intensity values: replicates A-C; for Log2 reporter intensity values / Log2 t-test Difference: EIF3H.

The target of experiment [3] is T1, DUBs and other proteins in HEK293 cells (Homo sapiens, UniProt Q9Y4E8).
T1 sequence (Q9Y4E8 1-981): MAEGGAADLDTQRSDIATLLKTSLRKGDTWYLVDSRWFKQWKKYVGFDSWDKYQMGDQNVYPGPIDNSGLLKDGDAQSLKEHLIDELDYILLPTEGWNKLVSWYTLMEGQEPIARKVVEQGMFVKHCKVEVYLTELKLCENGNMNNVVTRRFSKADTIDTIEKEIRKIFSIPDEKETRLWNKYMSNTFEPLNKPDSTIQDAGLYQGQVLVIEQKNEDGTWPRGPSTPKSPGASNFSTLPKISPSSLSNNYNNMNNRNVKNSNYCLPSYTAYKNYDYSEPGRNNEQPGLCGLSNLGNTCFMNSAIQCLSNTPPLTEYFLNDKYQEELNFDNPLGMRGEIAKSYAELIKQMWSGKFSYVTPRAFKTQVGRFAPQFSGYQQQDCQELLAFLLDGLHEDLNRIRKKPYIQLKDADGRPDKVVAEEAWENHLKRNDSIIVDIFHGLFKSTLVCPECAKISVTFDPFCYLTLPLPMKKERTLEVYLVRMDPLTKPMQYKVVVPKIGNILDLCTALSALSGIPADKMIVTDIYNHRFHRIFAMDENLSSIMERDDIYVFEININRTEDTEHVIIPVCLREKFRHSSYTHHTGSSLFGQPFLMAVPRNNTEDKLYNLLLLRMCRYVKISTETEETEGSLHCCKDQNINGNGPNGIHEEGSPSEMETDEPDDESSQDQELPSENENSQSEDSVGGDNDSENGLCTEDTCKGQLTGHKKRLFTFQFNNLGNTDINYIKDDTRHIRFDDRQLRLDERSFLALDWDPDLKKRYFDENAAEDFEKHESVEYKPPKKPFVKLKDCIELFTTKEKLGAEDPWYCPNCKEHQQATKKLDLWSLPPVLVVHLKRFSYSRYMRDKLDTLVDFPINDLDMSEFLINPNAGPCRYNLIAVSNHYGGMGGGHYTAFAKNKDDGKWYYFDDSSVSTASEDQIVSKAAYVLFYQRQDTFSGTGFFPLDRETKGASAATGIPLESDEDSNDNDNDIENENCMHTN
The experiment is described as above. To be noted: replicates A-C; for Log2 reporter intensity values: USP15: DMSO substract (FC); for Log2 reporter intensity values: USP15, DMSO subtracted.

Experiment [4] concerns the target T2, OTUB2 (Homo sapiens, UniProt Q96DC9).
T2 sequence (Q96DC9 1-234): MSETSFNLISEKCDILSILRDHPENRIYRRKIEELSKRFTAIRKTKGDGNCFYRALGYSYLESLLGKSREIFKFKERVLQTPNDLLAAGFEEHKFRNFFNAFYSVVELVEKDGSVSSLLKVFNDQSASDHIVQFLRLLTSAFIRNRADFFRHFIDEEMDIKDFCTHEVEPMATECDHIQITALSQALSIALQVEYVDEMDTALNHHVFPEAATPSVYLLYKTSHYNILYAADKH
Description: biochemical.

Experiment [5] concerns the target T3, DUBs and other proteins in HEK293 cells (Homo sapiens, UniProt Q96RU2).
T3 sequence (Q96RU2 1-1077): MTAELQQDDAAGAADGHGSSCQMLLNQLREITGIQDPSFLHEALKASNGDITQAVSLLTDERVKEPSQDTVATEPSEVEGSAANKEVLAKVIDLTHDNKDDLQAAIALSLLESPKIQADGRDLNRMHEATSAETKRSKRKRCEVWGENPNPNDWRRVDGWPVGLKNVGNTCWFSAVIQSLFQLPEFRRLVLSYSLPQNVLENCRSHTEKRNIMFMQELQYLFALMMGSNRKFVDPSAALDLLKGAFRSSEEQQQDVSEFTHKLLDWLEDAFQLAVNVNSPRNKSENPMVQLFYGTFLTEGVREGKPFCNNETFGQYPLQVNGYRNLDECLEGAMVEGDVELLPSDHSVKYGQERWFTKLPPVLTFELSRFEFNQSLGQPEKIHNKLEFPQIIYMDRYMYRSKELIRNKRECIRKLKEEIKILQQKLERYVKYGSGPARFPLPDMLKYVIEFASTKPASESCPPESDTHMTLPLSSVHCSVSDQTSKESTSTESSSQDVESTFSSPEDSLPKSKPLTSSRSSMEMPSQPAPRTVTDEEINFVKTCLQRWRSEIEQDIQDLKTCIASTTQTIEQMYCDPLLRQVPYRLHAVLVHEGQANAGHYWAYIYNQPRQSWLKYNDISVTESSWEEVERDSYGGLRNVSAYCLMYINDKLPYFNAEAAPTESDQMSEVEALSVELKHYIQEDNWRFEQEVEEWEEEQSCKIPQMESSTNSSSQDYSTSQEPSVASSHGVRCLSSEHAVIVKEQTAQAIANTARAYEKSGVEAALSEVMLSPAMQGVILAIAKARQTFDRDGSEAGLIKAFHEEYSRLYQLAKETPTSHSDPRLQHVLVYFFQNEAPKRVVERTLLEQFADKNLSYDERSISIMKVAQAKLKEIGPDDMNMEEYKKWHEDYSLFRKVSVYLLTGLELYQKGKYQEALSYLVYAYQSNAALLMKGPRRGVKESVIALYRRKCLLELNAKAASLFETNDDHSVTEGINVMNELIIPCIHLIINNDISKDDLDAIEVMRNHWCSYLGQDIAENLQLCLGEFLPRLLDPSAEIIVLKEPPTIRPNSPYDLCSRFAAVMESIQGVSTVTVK
Description: In-cell proteome-wide competitive ABPP, HEK293: other DUBs and proteins. The settings on record: replicates A-C; for Log2 reporter intensity values: USP28: competition with ABP 2, DMSO substract (FC); for Log2 reporter intensity values: USP28, DMSO subtracted.

[6] abbreviates: LDN at 5 μM, competition with ABP 2.
Setting [7] is: LDN at 25 μM, competition with ABP 2.

Sequence of DUBs and other proteins in HEK293 cells (Homo sapiens, UniProt Q93009) (Q93009 whole entry): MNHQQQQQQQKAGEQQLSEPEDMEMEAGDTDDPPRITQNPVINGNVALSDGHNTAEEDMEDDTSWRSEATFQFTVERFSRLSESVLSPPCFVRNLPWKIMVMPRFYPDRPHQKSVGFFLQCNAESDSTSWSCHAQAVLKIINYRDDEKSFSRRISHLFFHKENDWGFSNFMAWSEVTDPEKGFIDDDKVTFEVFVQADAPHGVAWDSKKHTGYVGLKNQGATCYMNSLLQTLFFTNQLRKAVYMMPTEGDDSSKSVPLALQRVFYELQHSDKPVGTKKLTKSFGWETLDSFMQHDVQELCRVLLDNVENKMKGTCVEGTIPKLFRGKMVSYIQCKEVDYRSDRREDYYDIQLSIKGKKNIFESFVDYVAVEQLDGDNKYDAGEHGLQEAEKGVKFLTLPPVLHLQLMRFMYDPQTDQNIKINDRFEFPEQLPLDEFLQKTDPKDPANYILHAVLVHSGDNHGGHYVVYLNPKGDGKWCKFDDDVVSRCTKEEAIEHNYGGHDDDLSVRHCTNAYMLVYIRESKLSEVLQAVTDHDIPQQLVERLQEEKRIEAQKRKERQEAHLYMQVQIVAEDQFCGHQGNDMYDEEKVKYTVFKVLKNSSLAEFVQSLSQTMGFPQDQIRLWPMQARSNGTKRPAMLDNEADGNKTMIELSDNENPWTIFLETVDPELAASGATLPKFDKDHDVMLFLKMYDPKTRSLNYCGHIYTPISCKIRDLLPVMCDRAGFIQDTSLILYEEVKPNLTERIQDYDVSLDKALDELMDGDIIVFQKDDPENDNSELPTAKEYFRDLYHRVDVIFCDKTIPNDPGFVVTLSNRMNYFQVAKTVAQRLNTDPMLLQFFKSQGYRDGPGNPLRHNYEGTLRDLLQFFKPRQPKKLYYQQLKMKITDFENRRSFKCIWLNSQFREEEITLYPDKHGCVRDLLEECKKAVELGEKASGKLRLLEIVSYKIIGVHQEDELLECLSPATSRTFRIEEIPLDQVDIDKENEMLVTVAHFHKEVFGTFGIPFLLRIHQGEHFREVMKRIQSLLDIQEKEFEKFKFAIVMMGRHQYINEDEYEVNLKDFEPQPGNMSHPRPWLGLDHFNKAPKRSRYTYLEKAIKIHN
Sequence of DUBs and other proteins in HEK293 cells (Homo sapiens, UniProt O15372) (O15372 whole entry): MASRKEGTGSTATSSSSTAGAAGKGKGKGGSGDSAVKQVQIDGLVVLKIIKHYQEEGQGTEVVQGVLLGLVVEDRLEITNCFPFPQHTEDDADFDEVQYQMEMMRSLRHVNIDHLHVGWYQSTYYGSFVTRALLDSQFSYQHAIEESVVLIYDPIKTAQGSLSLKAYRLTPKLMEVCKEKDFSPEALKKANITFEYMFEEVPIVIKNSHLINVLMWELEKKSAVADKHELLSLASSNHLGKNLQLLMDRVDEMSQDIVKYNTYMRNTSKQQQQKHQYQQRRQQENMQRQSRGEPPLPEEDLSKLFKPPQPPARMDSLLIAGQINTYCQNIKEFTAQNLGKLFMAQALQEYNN

`C#Cc1cnc2[nH]cc(-c3cccc4c3CCN4C(=O)[C@@H]3CCCN3C#N)c2c1` [Compound 2]: the “Log2 reporter intensity values: USP7” value in experiment [1] (20 nM ABP 2 alone) was 0.9183 and 1.036 and 1.009. Besides, the “Log2 reporter intensity values” in experiment [1] (20 nM ABP 2) was 0.05058 and 0.01361 and -0.082 and 0.009195; in experiment [2] (20 nM ABP 2, DMSO subtracted), -0.005103 and -0.006015 and 0.0001635 and -0.003675 and -0.004305 and -3.08E-05; in experiment [3] (20 nM ABP 2), 0.06335 and 0.03549 and 0.2127 and 0.04463 and 0.02465 and 0.1586. In addition, the “Log2 reporter intensity values, EIF3H” value in experiment [2] (20 nM ABP 2 (10 min), no competitor, All values) was 0.02449 and 0.02357 and 0.02975; in experiment [2] (20 nM ABP 2 (10 min), no competitor, DMSO subtracted), -0.005103 and -0.006015 and 0.0001635. Further, the “Log2 reporter intensity values: EIF3H” value in experiment [2] (20 nM ABP 2 alone) was 0.9965 and 0.9958 and 1. Besides, the “Log2 t-test Difference” value in experiment [2] (ABP 2 - 20 nM) was -0.003651. Also, the “Log2 reporter intensity values: USP15” value in experiment [3] (20 nM ABP 2 alone) was 1.045 and 1.025 and 1.159.
In the case of `CC(=O)O/N=C1\C(=O)N(Cc2cc(Cl)ccc2Cl)c2ccc(Cl)cc21` [LDN-57444, reference compound], the half-inhibitory concentration (IC50) – broadly, the concentration that gives 50% inhibition – in experiment [4] is more than 10 µM.
As for `CC(=O)O/N=C1\C(=O)N(Cc2cc(Cl)ccc2Cl)c2ccc(Cl)cc21` [LDN], the “Log2 reporter intensity values: USP7” value was 1.02 and 1.001 and 1.029 in experiment [1] (setting [6]); 0.9945 and 1.07 and 1.065 in experiment [1] (setting [7]). Besides, the “Log2 reporter intensity values” is 0.02794 and 0.001316 and 0.0413 in experiment [1] (LDN at 5 μM); -0.007921 and 0.09748 and 0.09021 in experiment [1] (LDN at 25 μM); 0.01927 and 0.0006308 and 0.02876 in experiment [1] (LDN_5 μM); -0.005757 and 0.06962 and 0.06425 in experiment [1] (LDN_25 μM); 0.03026 and -0.3461 and 0.1114 in experiment [5] (LDN at 5 μM); -0.42 and -0.4063 and 0.2545 in experiment [5] (LDN at 25 μM). Moreover, the “Log2 reporter intensity values” in experiment [5] (LDN_5 μM) is -0.01852 and -0.253 and 0.04055; in experiment [5] (LDN_25 μM), -0.2923 and -0.2852 and 0.1532; in experiment [2] (LDN at 5 μM, DMSO subtracted), 0.03403 and 0.006918 and 0.02346; in experiment [2] (LDN at 25 μM, DMSO subtracted), 0.02082 and 0.009076 and -0.01355; in experiment [2] (LDN_5 μM, DMSO subtracted) it was 0.02373 and 0.004663 and 0.01625; in experiment [2] (LDN_25 μM, DMSO subtracted) it was 0.01439 and 0.006167 and -0.009494. Further, the “Log2 reporter intensity values” is 0.007561 and -0.05945 and 0.09653 in experiment [3] (LDN at 5 μM); 0.06615 and -0.06 and -0.09494 in experiment [3] (LDN at 25 μM); 0.004993 and -0.04063 and 0.06894 in experiment [3] (LDN_5 μM); 0.04666 and -0.041 and -0.06395 in experiment [3] (LDN_25 μM). In addition, the “Log2 reporter intensity values: USP28” value in experiment [5] (LDN at 5 μM) is 1.021 and 0.7867 and 1.08; in experiment [5] (LDN at 25 μM) it was 0.7474 and 0.7545 and 1.193. Further, the “Log2 reporter intensity values, EIF3H” value is 0.06362 and 0.03651 and 0.05305 in experiment [2] (5 μM LDN-57444 (60 min) + 20 nM ABP 2 (10 min), All values); 0.03403 and 0.006918 and 0.02346 in experiment [2] (5 μM LDN-57444 (60 min) + 20 nM ABP 2 (10 min), DMSO subtracted); 0.05041 and 0.03867 and 0.01604 in experiment [2] (25 μM LDN-57444 (60 min) + 20 nM ABP 2 (10 min), All values); 0.02082 and 0.009076 and -0.01355 in experiment [2] (25 μM LDN-57444 (60 min) + 20 nM ABP 2 (10 min), DMSO subtracted). The “Log2 t-test Difference” value in experiment [2] (LDN - 5 μM) was 0.02512. For the same compound, the “Log2 reporter intensity values: EIF3H” value in experiment [2] (setting [6]) was 1.024 and 1.005 and 1.016; in experiment [2] (setting [7]) it was 1.015 and 1.006 and 0.9907. In addition, the “Log2 reporter intensity values: USP15” value in experiment [3] (setting [6]) is 1.005 and 0.9596 and 1.069; in experiment [3] (setting [7]) it was 1.047 and 0.9593 and 0.9363.
